Earlier results, collected in patent US8853275B2, “Concurrent therapy regime/regimen for the treatment of acne related diseases” (Galderma Research & Development, priority 2008, dated 2014).

Details: when combined with BPO; unlike tretinoin

For COc1ccc(-c2ccc3cc(C(=O)O)ccc3c2)cc1C12CC3CC(CC(C3)C1)C2 [Adapalene, 6-[3-(1-adamantyl)-4-methoxyphenyl]-2-naphtoïc acid], the “Stability in the presence of light” value is listed as “stable in the presence of light”.
